target: T1, Recombinant human cathepsin A (Homo sapiens, UniProt P10619); experiment: Cathepsin A inhibitory activity; format: biochemical; settings: pharmacological test "Cathepsin A inhibitory activity"; IC50 given as class A/B/C; read-out: Activity (2): Cathepsin A inhibitory activity, IC50 class
T1 construct: Recombinant human cathepsin A (residues 29-480, with a C-terminal 10-His tag); 10-His (C); purchased R&D Systems 1049-SE
T1 sequence (P10619 29-312 limits assumed): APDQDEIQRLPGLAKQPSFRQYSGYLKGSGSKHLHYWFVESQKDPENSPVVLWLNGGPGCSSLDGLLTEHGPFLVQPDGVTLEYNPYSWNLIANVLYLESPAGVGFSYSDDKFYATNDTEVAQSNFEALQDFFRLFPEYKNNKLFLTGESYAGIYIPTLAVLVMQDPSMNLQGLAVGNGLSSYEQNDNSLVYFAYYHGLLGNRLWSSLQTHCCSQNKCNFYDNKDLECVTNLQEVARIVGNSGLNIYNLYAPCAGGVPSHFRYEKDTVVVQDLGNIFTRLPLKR
T1 sequence (P10619 327-480 limits assumed): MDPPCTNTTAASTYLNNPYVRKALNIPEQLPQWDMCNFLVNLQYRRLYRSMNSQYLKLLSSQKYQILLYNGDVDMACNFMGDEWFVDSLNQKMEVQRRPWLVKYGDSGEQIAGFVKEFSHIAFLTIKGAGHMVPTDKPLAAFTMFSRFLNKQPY
Outline: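 Human cathepsin A (res. 29-480, C-His10) pre-activated with cathepsin L (MES pH 6.0, DTT, 15 min, 37 °C; quenched with 10 μM E-64). Enzyme (833 ng/ml) preincubated 15 min RT with compound in MES pH 5.5/DTT, then 2 μM Bodipy FL-bradykinin for 15 min RT. Capillary electrophoresis product/substrate peak areas; IC50 from % inhibition.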

SMILES | IC50
Cc1ccccc1[C@H](CC(=O)O)NC(=O)c1cc(O)n(-c2ccncc2)n1 [Example 141] | 1000 to 30000 nM
Cc1ccccc1[C@H](CC(=O)O)NC(=O)c1cc(O)n(-c2cccnc2)n1 [Example 143] | 1000 to 30000 nM
COc1ccc([C@H](CC(=O)O)NC(=O)c2cc(O)n(-c3ccccc3)n2)cn1 [Example 144] | 100 to 1000 nM
O=C(O)CC(NC(=O)c1cc(O)n(-c2ccccc2F)n1)c1ccc(-c2ccccc2)cc1 (stereo not shown) [Example 150] | < 100 nM
COc1cccc(-c2ccc(C(CC(=O)O)NC(=O)c3cc(O)n(-c4ccccc4F)n3)cc2)c1 (stereo not shown) [Example 156] | 100 to 1000 nM
COc1ccc(C(CC(=O)O)NC(=O)c2cc(O)n(-c3ccccc3)n2)c(OC)c1 (stereo not shown) [Example 161] | 1000 to 30000 nM
O=C(O)C[C@H](NC(=O)c1cc(O)n(-c2ccccc2)n1)c1cccc(F)c1 [Example 166] | 1000 to 30000 nM
O=C(O)C[C@H](NC(=O)c1cc(O)n(-c2ccccc2)n1)c1cccc(Cl)c1 [Example 167] | 100 to 1000 nM
O=C(O)CC(NC(=O)c1cc(O)n(-c2ccccc2)n1)c1cccc(Cl)c1Cl (stereo not shown) [Example 168] | 100 to 1000 nM
COc1cccc([C@H](CC(=O)O)NC(=O)c2cc(O)n(-c3ccccc3)n2)c1OC [Example 170] | 100 to 1000 nM
O=C(O)CC(NC(=O)c1cc(O)n(-c2ccccc2)n1)c1ccc(-c2cccc(F)c2)cc1 (stereo not shown) [Example 171] | 100 to 1000 nM
O=C(O)CC(NC(=O)c1cc(O)n(-c2ccccc2)n1)c1cccc(Cl)c1F (stereo not shown) [Example 172] | 100 to 1000 nM
O=C(O)CC(NC(=O)c1cc(O)n(-c2ccccc2)n1)c1cccc(Oc2ccc(Cl)cc2)c1 (stereo not shown) [Example 173] | 1000 to 30000 nM

Continued, values first:

IC50 | SMILES
100 to 1000 nM | Cc1cc(F)ccc1C(CC(=O)O)NC(=O)c1cc(O)n(-c2ccccc2Cl)n1 (stereo not shown) [Example 142]
100 to 1000 nM | O=C(O)C[C@H](NC(=O)c1cc(O)n(-c2ccccc2Cl)n1)c1cccnc1 [Example 145]
1000 to 30000 nM | O=C(O)C[C@H](NC(=O)c1cc(O)n(-c2ccccc2F)n1)c1ccc(-c2ccc(F)cc2)cc1 [Example 146]
< 100 nM | O=C(O)C[C@@H](NC(=O)c1cc(O)n(-c2ccccc2F)n1)c1ccc(-c2ccc(F)cc2)cc1 [Example 147]
1000 to 30000 nM | O=C(O)C[C@H](NC(=O)c1cc(O)n(-c2ccccc2Cl)n1)c1ccc(-c2ccc(F)cc2)cc1 [Example 148]
< 100 nM | O=C(O)C[C@@H](NC(=O)c1cc(O)n(-c2ccccc2Cl)n1)c1ccc(-c2ccc(F)cc2)cc1 [Example 149]
1000 to 30000 nM | O=C(O)CC(NC(=O)c1cc(O)n(-c2ccncc2)n1)c1ccc(-c2ccccc2)cc1 (stereo not shown) [Example 151]
100 to 1000 nM | COc1cccc(-c2ccc(C(CC(=O)O)NC(=O)c3cc(O)n(-c4ccccc4Cl)n3)cc2)c1 (stereo not shown) [Example 157]
100 to 1000 nM | O=C(O)CC(NC(=O)c1cc(O)n(-c2ccccc2)n1)c1cccc2c1OCO2 (stereo not shown) [Example 158]
100 to 1000 nM | O=C(O)C[C@H](NC(=O)c1cc(O)n(-c2ccccc2)n1)c1ccccc1Br [Example 159]
1000 to 30000 nM | N#Cc1cccc([C@H](CC(=O)O)NC(=O)c2cc(O)n(-c3ccccc3)n2)c1 [Example 160]
100 to 1000 nM | COc1ccc(C(CC(=O)O)NC(=O)c2cc(O)n(-c3ccccc3)n2)c(Cl)c1 (stereo not shown) [Example 162]
100 to 1000 nM | O=C(O)C[C@H](NC(=O)c1cc(O)n(-c2ccccc2)n1)c1ccc(F)cc1 [Example 163]
< 100 nM | O=C(O)C[C@H](NC(=O)c1cc(O)n(-c2ccccc2)n1)c1cccc(Cl)c1Cl [Example 164]
1000 to 30000 nM | COc1cccc([C@H](CC(=O)O)NC(=O)c2cc(O)n(-c3ccccc3)n2)c1 [Example 165]
1000 to 30000 nM | COc1ccccc1[C@@H](NC(=O)c1cc(O)n(-c2ccccc2)n1)[C@@H](O)C(=O)O [Example 169]
100 to 1000 nM | O=C(O)CC(NC(=O)c1cc(O)n(-c2ccc(F)cc2F)n1)c1cccc2c1OCO2 (stereo not shown) [Example 174]
100 to 1000 nM | O=C(O)C[C@H](NC(=O)c1cc(O)n(-c2ccc(F)cc2F)n1)c1ccccc1Br [Example 175]

Reference: US8664257B2, “Oxygen-substituted 3-heteroaroylamino-propionic acid derivatives and their use as pharmaceuticals” (Sanofi, priority 2010, dated 2014)
